# PubChem BioAssay AID1963864 (Molecular Pharmacology Branch, DTP, NCI, 2024)
# System: KRAS PDC multicell spheroid viability
# Assay: Anticancer human tumor 521955-158-R6-J3-PDC patient-derived pancreatic carcinoma cell line growth inhibition [KRAS2]
# Conditions: for IC50: curve of first compound; for viability, T/C: stronger effect = lower value
# Excerpt: Multicellular complex tumor spheroid response to RAS pathway inhibitors in combination with a targeted agents in patient-derived cell lines with oncogenic KRAS variants from multiple cancer types
# A high-throughput screen of multi-cell type tumor spheroids was designed to identify active combinations of targeted small molecules and KRAS pathway inhibitors. Complex spheroids include a stromal component modeled by human endothelial cells (HUVEC) and fibroblasts modeled by human mesenchymal stem cells (MSCs). The concentration ranges selected for each drug and investigational agent were based upon clinically achievable concentrations if the clinical Cmax of the agent was known.
# Compounds. The drugs and investigational agents: BI-3406 (NSC825286), BAY-293 (NSC824723), batoprotafib (TNO155; NSC825523), sotorasib (AMG 510; NSC818433), MRTX1257 (NSC819558), elimusertib (BAY 1895344; NSC800525), molibresib (GSK525762; NSC774829), temuterkib (LY3214996; NSC803410), venetoclax (NSC766270), alisertib (NSC759677), olaparib (NSC753686), talazoparib (NSC767125), erdafitinib (NSC781556), ipatasertib (NSC767898), cabozantinib (NSC761068), nintedanib (NSC756659), abemaciclib (NSC768073), docetaxel (NSC628503), trametinib (NSC758246), and sapanisertib (NSC764658) were obtained from the National Cancer Institute (NCI) Developmental Therapeutics Program Chemical Repository. The FDA-approved anticancer drug set is available from the Developmental Therapeutics Program. […] The stock solutions were prepared in dimethyl sulfoxide (DMSO, Sigma-Aldrich, St. Louis, MO, cat. D2650) at 800-fold the tested concentration and stored at -70 degrees C prior to their use. All drugs and investigational agents were tested over a range starting from a high concentration at or near the clinical Cmax and decreasing in half-log increments. If the clinical Cmax for an agent had not been determined, the highest concentration tested was 10 microM.
# Cell Culture. All cells were maintained in an incubator at 37 degrees C and 5% CO2 with 95% humidity. The PDC lines were cultured according to standard operating procedures established by the NCI PDMR (https://pdmr.cancer.gov/sops/default.htm). Briefly, all PDCs were thawed and cultured in Matrigel-coated flasks prepared with a working solution of 1X Ham's F-12 nutrient mix, without supplementation (Invitrogen, Waltham, MA, cat. 11765054), 100 U/mL penicillin-streptomycin (Invitrogen, cat. 15140122), and 2.5% Matrigel (Corning Inc., Corning, NY, cat. 354248) for the first three passages. All PDCs were cultured in complete DMEM/F-12 media containing advanced DMEM/F-12 (Invitrogen, cat. 12634028), 4.9% defined fetal bovine serum, heat inactivated (HyClone Laboratories Inc., Logan, UT, cat. SH30070.03HI), 389 ng/mL hydrocortisone (Sigma-Aldrich, cat. H4001), 9.7 ng/mL human EGF recombinant protein (Invitrogen, cat. PHG0313), 23.4 microg/mL adenine (Sigma-Aldrich, cat. A2786), 97.3 U/mL penicillin-streptomycin (Invitrogen, cat. 15140122), 1.9 mM L-glutamine (Invitrogen, cat. 25030081), and 9.7 microM Y-27632 dihydrochloride (Tocris Bioscience, Bristol, United Kingdom, cat. 1254). The PDCs were cultured in complete DMEM/F12 media without 9.7 microM Y-27632 dihydrochloride for at least two passages prior to the screen. The established cell line HOP-62 was cultured in RPMI 1640 medium, HEPES (Invitrogen, cat. 22400105) with 10% defined fetal bovine serum (HyClone Laboratories Inc., cat. SH30070.03) and 2 mM L-glutamine (Invitrogen, cat. 25030081). The pooled donor HUVEC were cultured in endothelial cell growth medium 2 (PromoCell, Heidelberg, Germany, cat. C-22011) and the hMSC were cultured in mesenchymal stem cell growth medium 2 (PromoCell, cat. C-28009). For all experiments, HUVEC and hMSC were used at passages </=5, while the malignant cell lines were used at passages </=15. […]
# [1] = second compound 0.1 µM, first compound 0.0316 µM
# [2] = second compound 0.1 µM, first compound 0.1 µM
# [3] = second compound 0.1 µM, first compound 0.316 µM
# [4] = second compound 0.1 µM, first compound 1 µM
# [5] = second compound 0.1 µM, first compound 3.16 µM
# [6] = second compound 0.1 µM, first compound 10 µM
# [7] = second compound 0.316 µM, first compound 0.0316 µM
# [8] = second compound 0.316 µM, first compound 0.1 µM
# [9] = second compound 0.316 µM, first compound 0.316 µM
# [10] = second compound 0.316 µM, first compound 1 µM
# [11] = second compound 0.316 µM, first compound 3.16 µM
# [12] = second compound 0.316 µM, first compound 10 µM
# [13] = second compound 1 µM, first compound 0.0316 µM
# [14] = second compound 1 µM, first compound 0.1 µM
# [15] = second compound 1 µM, first compound 0.316 µM
# [16] = second compound 1 µM, first compound 1 µM
# [17] = second compound 1 µM, first compound 3.16 µM
# [18] = second compound 1 µM, first compound 10 µM
# [19] = second compound 3.16 µM, first compound 0.0316 µM
# [20] = second compound 3.16 µM, first compound 0.1 µM
# [21] = second compound 3.16 µM, first compound 0.316 µM
# [22] = second compound 3.16 µM, first compound 1 µM
# [23] = second compound 3.16 µM, first compound 3.16 µM
# [24] = second compound 3.16 µM, first compound 10 µM
# [25] = second compound 10 µM, first compound 0.0316 µM
# [26] = second compound 10 µM, first compound 0.1 µM
# [27] = second compound 10 µM, first compound 0.316 µM
# [28] = second compound 10 µM, first compound 1 µM
# [29] = second compound 10 µM, first compound 3.16 µM
# [30] = second compound 10 µM, first compound 10 µM
# 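Note: drug exposure lasted seven days.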
# 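Throughout, for viability, T/C: 100% = DMSO vehicle wells and lower means fewer viable cells.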
Structure (SMILES),IC50 (second compound 0.1 µM),IC50 (second compound 0.316 µM),IC50 (second compound 1 µM),IC50 (second compound 3.16 µM),IC50 (second compound 10 µM),"viability, T/C [1]","viability, T/C [2]","viability, T/C [3]","viability, T/C [4]","viability, T/C [5]","viability, T/C [6]","viability, T/C [7]","viability, T/C [8]","viability, T/C [9]","viability, T/C [10]","viability, T/C [11]","viability, T/C [12]","viability, T/C [13]","viability, T/C [14]","viability, T/C [15]",further results
COC(=O)c1ccc2c(C(=Nc3ccc(N(C)C(=O)CN4CCN(C)CC4)cc3)c3ccccc3)c(O)[nH]c2c1 + COc1cc2nc(C)nc(NC(C)c3cc(N)cc(C(F)(F)F)c3)c2cc1OC1CCOC1,3.01 µM,3.53 µM,2.41 µM,1.72 µM,< 0.0316 µM,90%,95.7%,107%,115%,47.6%,0.24%,93.9%,90.3%,91.4%,122%,55.2%,0.21%,84%,94.4%,107%,"viability, T/C [16]: 115%; viability, T/C [17]: 34.5%; viability, T/C [18]: 1.78%; viability, T/C [19]: 75.8%; viability, T/C [20]: 75.5%; viability, T/C [21]: 108%; viability, T/C [22]: 101%; viability, T/C [23]: 4.81%; viability, T/C [24]: 0.15%; viability, T/C [25]: 42%; viability, T/C [26]: 29.7%; viability, T/C [27]: 6.94%; viability, T/C [28]: 2.96%; viability, T/C [29]: 2.48%; viability, T/C [30]: 0.99%"
CCNC(=O)CC1N=C(c2ccc(Cl)cc2)c2cc(OC)ccc2-n2c(C)nnc21 (stereo not given) + CC1OCC2(CCN(c3cnc(Sc4ccnc(N)c4Cl)c(N)n3)CC2)C1N,> 10 µM,> 10 µM,> 10 µM,> 10 µM,1.07 µM,84.1%,83.5%,58.9%,73.5%,62.6%,73.3%,102%,90.3%,69.3%,68.1%,56.4%,62.2%,99.5%,86.6%,70.8%,"viability, T/C [16]: 65.9%; viability, T/C [17]: 56.4%; viability, T/C [18]: 59.8%; viability, T/C [19]: 106%; viability, T/C [20]: 103%; viability, T/C [21]: 77%; viability, T/C [22]: 62.6%; viability, T/C [23]: 58%; viability, T/C [24]: 53.3%; viability, T/C [25]: 115%; viability, T/C [26]: 105%; viability, T/C [27]: 76.4%; viability, T/C [28]: 50%; viability, T/C [29]: 43.2%; viability, T/C [30]: 43%"
